Literature values as cited in patent US8877698B2, “Method and composition for disinfecting hard surfaces” (priority 2001, dated 2014).

Tested on: poliovirus

Compound: CCO [ethanol]
- minimum concentration required to inactivate poliovirus: 70%
- virucidal action against poliovirus: little virucidal action
